Experimental data taken from ChEMBL document CHEMBL5154942, “Discovery of Clinical Candidate NTQ1062 as a Potent and Bioavailable Akt Inhibitor for the Treatment of Human Tumors” (J Med Chem, 2022).
Active and inactive are the calls of the source. The calls are words filed in the database; no cut-off is given here.

Legend:
[1] = Tmax in NCG mouse xenografted with human LNCaP cells at 50 mg/kg administered once daily for 18 to 21 days and measured upto 10 hrs post last dose by LC-MS/MS analysis; type: ADME, organism-based; conditions: in vivo, time 18-21 day
[2] = Half life in Sprague-Dawley rat at 10 mg/kg, ig by UPLC-MS/MS analysis; type: ADME, organism-based; conditions: in vivo, po
[3] = biological target: Cytochrome P450 2C9 (Homo sapiens, UniProt P11712); test: Inhibition of CYP2C9 in human liver microsomes at 0.01 to 30 uM using diclofenac as substrate in presence of NADPH by UPLC-MS/MS analysis; type: ADME, Microsome
[4] = Tmax in crab-eating monkey at 6 mg/kg, ig by UPLC-MS/MS analysis; type: ADME, organism-based, Macaca fascicularis; conditions: cynomolgus monkey, in vivo, po
[5] = AUC (0 to infinity) in Sprague-Dawley rat at 10 mg/kg, ig by UPLC-MS/MS analysis; type: ADME, organism-based; set-up: time infinity, dose 10 mg/kg, route ig; conditions: in vivo, po
[6] = Metabolic stability in human […] liver microsomes assessed as half life at 1 uM measured after 60 mins by LC-MS/MS analysis; type: ADME, Microsome
[7] = Bioavailability in crab-eating monkey at 6 mg/kg, ig by UPLC-MS/MS analysis; type: ADME, organism-based, Macaca fascicularis; conditions: cynomolgus monkey, in vivo, po
[8] = AUC (0 to t) in NCG mouse xenografted with human LNCaP cells at 25 mg/kg administered daily once for 18 to 21 days and measured upto 10 hrs post last dose by LC-MS/MS analysis; type: ADME, organism-based; set-up: time 18-21 day, dose 25 mg/kg; conditions: in vivo
[9] = biological target: T1, Cytochrome P450 1A2 (Homo sapiens, UniProt P05177); test: Inhibition of CYP1A2 in human liver microsomes at 0.01 to 30 uM […] in presence of NADPH by UPLC-MS/MS analysis; type: ADME, Microsome
T1 sequence (P05177 whole entry): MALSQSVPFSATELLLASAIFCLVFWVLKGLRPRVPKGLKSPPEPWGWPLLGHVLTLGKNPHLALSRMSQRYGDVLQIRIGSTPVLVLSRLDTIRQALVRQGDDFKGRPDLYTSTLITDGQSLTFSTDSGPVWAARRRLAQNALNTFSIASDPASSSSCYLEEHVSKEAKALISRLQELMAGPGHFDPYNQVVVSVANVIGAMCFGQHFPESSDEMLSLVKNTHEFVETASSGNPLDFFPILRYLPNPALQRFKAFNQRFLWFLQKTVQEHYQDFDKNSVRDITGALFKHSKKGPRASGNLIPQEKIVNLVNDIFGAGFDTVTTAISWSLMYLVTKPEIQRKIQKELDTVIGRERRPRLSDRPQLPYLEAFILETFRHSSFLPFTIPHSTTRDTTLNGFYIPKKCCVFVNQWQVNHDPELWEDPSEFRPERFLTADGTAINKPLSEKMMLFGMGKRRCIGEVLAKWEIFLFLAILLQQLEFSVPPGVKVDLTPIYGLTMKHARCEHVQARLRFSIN

[10] = Cmax in Sprague-Dawley rat at 5 mg/kg, iv measured upto 24 hrs by UPLC-MS/MS analysis; type: ADME, organism-based; set-up: dose 5 mg/kg, time < 24 hrs, route iv; conditions: in vivo
[11] = biological target: Protein kinase C alpha type (Homo sapiens) (UniProt P17252); test: Inhibition of PKCalpha (unknown origin) at 1 uM in presence of ATP at Km concentration by mobility shift assay relative to control
[12] = Metabolic stability in human liver microsomes assessed as parent compound remaining at 1 uM measured after 60 mins by UPLC-MS/MS analysis; type: ADME, Microsome; conditions: read-out: Stability
[13] = system: LNCaP; test: Induction of apoptosis in human LNCaP cells assessed as late apoptotic cells at […] incubated for 72 hrs by annexin V/PI double staining based flow cytometry method (reference value: 2.75 %); type: functional
[14] = system: LNCaP; test: Induction of apoptosis in human LNCaP cells assessed as late apoptotic cells at 1.25 uM incubated for 72 hrs by annexin V/PI double staining based flow cytometry method (reference value: 2.75 %); type: functional
[15] = AUC (0 to t) in NCG mouse xenografted with human LNCaP cells at 50 mg/kg administered daily once for 18 to 21 days and measured upto 10 hrs post last dose by LC-MS/MS analysis; type: ADME, organism-based; set-up: dose 50 mg/kg, time 18-21 day; conditions: in vivo
[16] = Cmax in NCG mouse xenografted with human LNCaP cells at 25 mg/kg administered once daily for 18 to 21 days and measured upto 10 hrs post last dose by LC-MS/MS analysis; type: ADME, organism-based; set-up: time upper 21 day, time lower 18 day, dose 25 mg/kg; conditions: in vivo
[17] = Metabolic stability in Crab eating monkey liver microsomes assessed hepatic clearance at 1 uM measured after 60 mins by LC-MS/MS analysis; type: ADME, Macaca fascicularis, Microsome; conditions: cynomolgus monkey, 1 h
[18] = system: LNCaP; test: Induction of cell cycle arrest in human LNCap cells assessed as decrease in accumulation at G2/M phase at 0.04 to 1 uM incubated for 24 hrs by flow cytometry; type: functional, cell-based; conditions: dose 0.04-1 µM
[19] = Half life in Sprague-Dawley rat at 5 mg/kg, iv measured upto 24 hrs by UPLC-MS/MS analysis; type: ADME, organism-based; conditions: in vivo
[20] = Toxicity in NCG mouse xenografted with human LNCaP cells assessed as tolerability at 12.5 to 50 mg/kg administered for 18 days; type: organism-based; conditions: in vivo, 432 h, dose 12.5-50 mg/kg, time 18 day
[21] = AUC (0 to t) in NCG mouse xenografted with human LNCaP cells at 12.5 mg/kg administered daily once for 18 to 21 days and measured upto 10 hrs post last dose by LC-MS/MS analysis; type: ADME, organism-based; conditions: in vivo
[22] = system: LNCaP; test: In vivo inhibition of AKT in human LNCaP cells xenografted in NCG mouse assessed as reduction in PRAS40 phosphorylation at 50 mg/kg administered for 21 days and measured after 4 hrs post last dose by Western blot analysis; type: functional, organism-based; conditions: time 21.0 day
[23] = system: LNCaP; test: Induction of apoptosis in human LNCaP cells assessed as early apoptotic cells at 1.25 uM incubated for 72 hrs by annexin V/PI double staining based flow cytometry method (reference value: […]); type: functional
[24] = system: LNCaP; test: Induction of apoptosis in human LNCaP cells assessed as viable cells at 1.25 uM incubated for 72 hrs by annexin V/PI double staining based flow cytometry method (reference value: 93.63 %); type: functional; conditions: read-out: Activity
[25] = Tmax in NCG mouse xenografted with human LNCaP cells at 12.5 mg/kg administered once daily for 18 to 21 days and measured upto 10 hrs post last dose by LC-MS/MS analysis; type: ADME, organism-based; conditions: in vivo, time 18-21 day
[26] = AUC (0 to t) in Sprague-Dawley rat at 10 mg/kg, ig by UPLC-MS/MS analysis; type: ADME, organism-based; set-up: dose 10 mg/kg, route ig; conditions: in vivo, po
[27] = system: LNCaP; test: In vivo inhibition of AKT in human LNCaP cells xenografted in NCG mouse assessed as reduction in GSK-3beta phosphorylation at 25 to 50 mg/kg administered for 21 days and measured after 4 hrs post last dose by Western blot analysis; type: functional, organism-based; conditions: dose lower […], dose upper 50.0 mg/kg, time 21.0 day
[28] = biological target: Protein kinase C eta type (Homo sapiens) (UniProt P24723); test: Inhibition of PKCeta (unknown origin) at 1 uM in presence of ATP at Km concentration by mobility shift assay relative to control
[29] = system: LNCaP; test: Induction of apoptosis in human LNCaP cells assessed as necrotic cells at 1.25 uM incubated for 72 hrs by annexin V/PI double staining based flow cytometry method (reference value: 2.41%); type: functional

Sequence of Protein kinase C eta type (Homo sapiens) (P24723 whole entry): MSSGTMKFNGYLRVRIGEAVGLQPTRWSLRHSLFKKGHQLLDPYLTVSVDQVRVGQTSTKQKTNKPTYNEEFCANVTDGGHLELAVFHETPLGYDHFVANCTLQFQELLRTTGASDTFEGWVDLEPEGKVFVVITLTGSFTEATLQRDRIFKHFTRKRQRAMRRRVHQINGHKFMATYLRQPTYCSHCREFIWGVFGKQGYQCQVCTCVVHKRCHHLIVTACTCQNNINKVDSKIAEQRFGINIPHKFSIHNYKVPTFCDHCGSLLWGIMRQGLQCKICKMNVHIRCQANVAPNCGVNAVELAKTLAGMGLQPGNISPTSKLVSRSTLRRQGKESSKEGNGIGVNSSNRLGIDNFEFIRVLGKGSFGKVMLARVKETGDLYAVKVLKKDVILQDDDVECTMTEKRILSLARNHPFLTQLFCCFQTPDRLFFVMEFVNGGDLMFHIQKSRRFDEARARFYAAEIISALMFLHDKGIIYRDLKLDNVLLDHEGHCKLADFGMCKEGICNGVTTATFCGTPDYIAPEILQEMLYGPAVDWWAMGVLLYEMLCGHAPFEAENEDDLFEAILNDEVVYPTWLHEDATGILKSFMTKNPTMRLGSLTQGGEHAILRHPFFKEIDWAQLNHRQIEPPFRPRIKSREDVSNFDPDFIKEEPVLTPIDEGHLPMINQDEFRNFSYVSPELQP
Sequence of Cytochrome P450 2C9 (P11712 whole entry): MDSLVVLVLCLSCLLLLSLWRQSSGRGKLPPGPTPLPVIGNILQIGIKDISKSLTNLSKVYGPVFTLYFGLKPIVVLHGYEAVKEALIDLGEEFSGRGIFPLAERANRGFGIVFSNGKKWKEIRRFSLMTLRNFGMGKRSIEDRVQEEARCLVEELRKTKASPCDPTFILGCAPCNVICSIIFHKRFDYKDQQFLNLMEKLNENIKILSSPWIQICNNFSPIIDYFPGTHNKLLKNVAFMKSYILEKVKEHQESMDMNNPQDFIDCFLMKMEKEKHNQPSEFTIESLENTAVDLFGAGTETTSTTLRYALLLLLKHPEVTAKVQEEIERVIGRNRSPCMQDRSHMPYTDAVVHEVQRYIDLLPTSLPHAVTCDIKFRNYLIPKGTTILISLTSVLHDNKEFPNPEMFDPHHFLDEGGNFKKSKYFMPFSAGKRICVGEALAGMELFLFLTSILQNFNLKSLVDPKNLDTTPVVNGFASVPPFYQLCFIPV

Tmax [1]: 1 h | half-life [2]: 3.28 h | IC50 [3]: > 50 µM | Tmax [4]: 4 h | AUC(0-inf) [5]: 3890 ng·h/mL | half-life at 1 µM [6]: 1.52 h | bioavailability [7]: 41.2% | AUC(0-t) [8]: 13500 ng·h/mL | IC50 [9]: > 50 µM | Cmax [10]: 1690 ng/mL | inhibition [11]: 90% | remaining at 1 h, 1 µM [12]: 62.9% | AUC(0-t) [15]: 22000 ng·h/mL | Cmax [16]: 1980 ng/mL | CLH [17]: 1.51 mL/h/kg | half-life [19]: 2.97 h | AUC(0-t) [21]: 7030 ng·h/mL | Tmax [25]: 2 h | AUC(0-t) [26]: 3880 ng·h/mL | inhibition [28]: 90%
Compound: CC(C)NC[C@@H](C(=O)N1CCN(c2ncnc3c2[C@H](C)CC(=O)N3)[C@H]2C[C@H]21)c1ccc(Cl)cc1
Activity ([13]; dose 0.62 µM): 9.01% | Activity ([13]; dose 2.5 µM): 16.43% | Activity [14]: 12.65% | Activity [18]: Active | Activity [20]: Non-Toxic | Activity [22]: Active | Activity [23]: 12.6% | viability at 1.25 µM [24]: 69.8% | Activity [27]: Active | Activity [29]: 4.92%
